From ChEMBL document CHEMBL6177968, “Development of sulfamoylbenzamide-based capsid assembly modulators for hepatitis B virus capsid assembly” (Eur J Med Chem, 2025)

Columns and labels:
[1] = test system: Hepatitis B virus; test: Antiviral activity against HBV in human HepG2.2.15 cells assessed as reduction in viral replication incubated for 5 days by real-time PCR analysis; format: functional, organism-based; settings: HepG2.2.15, 120 h
[2] = Cytotoxicity in human HepG2.2.15 cells assessed as reduction in cell viability; format: toxicity, cell-based, HepG2 2.2.15
[3] = Selectivity index, ratio of CC50 for cytotoxicity in human HepG2.2.15 cells assessed as reduction in cell viability to EC50 for antiviral activity against HBV in human HepG2.2.15 cells assessed as reduction in viral replication; format: toxicity, cell-based; settings: read-out: Ratio CC50/EC50
[4] = Metabolic stability in mouse liver microsomes assessed as compound remaining measured after 30 mins; format: ADME, Microsome; settings: read-out: Stability
[5] = Metabolic stability in rat liver microsomes assessed as compound remaining measured after 30 mins; format: ADME, Microsome; settings: read-out: Stability
[6] = Metabolic stability in human liver microsomes assessed as compound remaining measured after 30 mins; format: ADME, Microsome; settings: read-out: Stability
[7] = Stability in mouse plasma assessed as compound remaining incubated for 4 hrs; format: ADME, cell-free; settings: read-out: Stability
[8] = Stability in human plasma assessed as compound remaining incubated for 4 hrs; format: ADME, cell-free; settings: read-out: Stability
[9] = Plasma protein binding in mouse; format: ADME, cell-free; settings: read-out: PPB (converted)
[10] = Plasma protein binding in human; format: ADME, cell-free; settings: read-out: PPB (converted)
[11] = Cytotoxicity in African green monkey Vero cells; format: toxicity, cell-based, Chlorocebus sabaeus
[12] = Cytotoxicity in HFL1 cells; format: toxicity, cell-based; settings: human
[13] = Cytotoxicity in mouse L929 cells; format: toxicity, cell-based
[14] = Cytotoxicity in mouse NIH3T3 cells; format: toxicity, cell-based
[15] = Cytotoxicity in CHO-K1 cells; format: toxicity, cell-based, Cricetulus griseus; settings: Chinese hamster
[16] = target: T1, Cytochrome P450 1A2 (Homo sapiens, UniProt P05177); test: Inhibition of CYP1A2 in human liver microsome; format: ADME, microsomes
T1 sequence (P05177 whole entry): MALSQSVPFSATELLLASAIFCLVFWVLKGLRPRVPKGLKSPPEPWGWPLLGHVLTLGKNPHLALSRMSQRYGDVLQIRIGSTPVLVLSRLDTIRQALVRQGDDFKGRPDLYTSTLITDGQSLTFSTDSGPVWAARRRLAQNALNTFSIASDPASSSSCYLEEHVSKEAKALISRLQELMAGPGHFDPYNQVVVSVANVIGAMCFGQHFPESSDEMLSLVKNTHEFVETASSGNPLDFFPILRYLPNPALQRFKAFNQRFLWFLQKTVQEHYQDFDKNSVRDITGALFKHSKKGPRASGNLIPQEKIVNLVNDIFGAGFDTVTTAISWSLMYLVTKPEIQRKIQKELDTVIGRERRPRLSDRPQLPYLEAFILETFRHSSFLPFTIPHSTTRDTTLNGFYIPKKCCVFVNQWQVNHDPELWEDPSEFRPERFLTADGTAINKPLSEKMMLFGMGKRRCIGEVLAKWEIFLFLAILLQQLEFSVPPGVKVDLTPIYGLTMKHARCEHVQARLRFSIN

[17] = target: Cytochrome P450 2C9 (Homo sapiens, UniProt P11712); test: Inhibition of CYP2C9 in human liver microsome; format: ADME, microsomes
[18] = target: Cytochrome P450 2C19 (Homo sapiens, UniProt P33261); test: Inhibition of CYP2C19 in human liver microsome; format: ADME, microsomes
[19] = target: Cytochrome P450 2D6 (Homo sapiens, UniProt P10635); test: Inhibition of CYP2D6 in human liver microsome; format: ADME, microsomes
[20] = target: Cytochrome P450 3A4 (Homo sapiens, UniProt P08684); test: Inhibition of CYP3A4 in human liver microsome; format: ADME, microsomes
[21] = target: Voltage-gated inwardly rectifying potassium channel KCNH2 (Homo sapiens, UniProt Q12809); test: Inhibition of human ERG; format: toxicity
[22] = test system: Hepatitis B virus; test: Antiviral activity against HBV in human HepG2 cells expressing NTCP assessed as reduction in viral replication; format: functional, organism-based
[23] = test system: Hepatitis B virus; test: Antiviral activity against HBV in human HepaRG cells assessed as reduction in viral replication; format: functional, organism-based
[24] = Cytotoxicity in human HepG2-hNTCP cells assessed as reduction in cell viability; format: toxicity, cell-based
[25] = Cytotoxicity in human HepaRG cells assessed as reduction in cell viability; format: toxicity, cell-based
[26] = Selectivity index, ratio of CC50 for cytotoxicity in human HepG2-hNTCP cells assessed as reduction in cell viability to EC50 for antiviral activity against HBV in human HepG2-hNTCP cells assessed as reduction in viral replication; format: toxicity, cell-based; settings: read-out: Ratio CC50/EC50
[27] = Selectivity index, ratio of CC50 for cytotoxicity in human HepaRG cells assessed as reduction in cell viability to EC50 for antiviral activity against HBV in human HepaRG cells assessed as reduction in viral replication; format: toxicity, cell-based; settings: read-out: Ratio CC50/EC50
[28] = Half life in male mouse at 5 mg/kg, iv; format: ADME, organism-based; settings: in vivo
[29] = AUClast in male mouse at 5 mg/kg, iv; format: ADME, organism-based; settings: in vivo
[30] = AUC (0 to infinity) in male mouse at 5 mg/kg, iv; format: ADME, organism-based; settings: in vivo
[31] = Clearance in male mouse at 5 mg/kg, iv; format: ADME, organism-based; settings: in vivo
[32] = Volume of distribution at steady state in male mouse at 5 mg/kg, iv; format: ADME, organism-based; settings: in vivo, read-out: Vdss
[33] = Half life in male mouse at 20 mg/kg, iv; format: ADME, organism-based; settings: in vivo
[34] = AUClast in male mouse at 20 mg/kg, iv; format: ADME, organism-based; settings: in vivo
[35] = AUC (0 to infinity) in male mouse at 20 mg/kg, iv; format: ADME, organism-based; settings: in vivo
[36] = Clearance in male mouse at 20 mg/kg, iv; format: ADME, organism-based; settings: in vivo
[37] = Volume of distribution at steady state in male mouse at 20 mg/kg, iv; format: ADME, organism-based; settings: in vivo, read-out: Vdss
[38] = Tmax in male mouse at 5 mg/kg, po; format: ADME, organism-based; settings: in vivo
[39] = Cmax in male mouse at 5 mg/kg, po; format: ADME, organism-based; settings: in vivo
[40] = Half life in male mouse at 5 mg/kg, po; format: ADME, organism-based; settings: in vivo
[41] = AUClast in male mouse at 5 mg/kg, po; format: ADME, organism-based; settings: in vivo
[42] = AUC (0 to infinity) in male mouse at 5 mg/kg, po; format: ADME, organism-based; settings: in vivo
[43] = Oral bioavailability in male mouse at 5 mg/kg; format: ADME, organism-based; settings: in vivo
[44] = Tmax in male mouse at 20 mg/kg, po; format: ADME, organism-based; settings: in vivo
[45] = Cmax in male mouse at 20 mg/kg, po; format: ADME, organism-based; settings: in vivo
[46] = Half life in male mouse at 20 mg/kg, po; format: ADME, organism-based; settings: in vivo
[47] = AUClast in male mouse at 20 mg/kg, po; format: ADME, organism-based; settings: in vivo
[48] = AUC (0 to infinity) in male mouse at 20 mg/kg, po; format: ADME, organism-based; settings: in vivo
[49] = Oral bioavailability in male mouse at 20 mg/kg; format: ADME, organism-based; settings: in vivo
[50] = test system: Hepatitis B virus; test: Antiviral activity against HBV infected in human HepG2 cells expressing NTCP assessed as viral DNA replication at 1 uM incubated for 6 days by Southern blot analysis (reference value: 100 %); format: functional; settings: time 6 day
[51] = test system: Hepatitis B virus; test: Antiviral activity against HBV infected in human HepG2 cells expressing NTCP assessed as fold reduction in capsid associated viral DNA level at 1 uM incubated for 6 days by Southern blot analysis relative to control; format: functional; settings: time 6 day
[52] = test system: Hepatitis B virus; test: Antiviral activity against HBV infected in human HepG2 cells expressing NTCP assessed as capsid level at 1 uM incubated for 6 days by Western blot analysis (reference value: 100 %); format: functional; settings: time 6 day
[53] = test system: Hepatitis B virus; test: Antiviral activity against HBV infected in human HepG2 cells expressing NTCP assessed as capsid associated HBV DNA level at 1 uM incubated for 6 days by Western blot analysis (reference value: 100 %); format: functional; settings: time 6 day
[54] = test system: HepG2; test: Effect on viral rcDNA level in human HepG2 cells expressing NTCP infected with HBV at 1 uM incubated for 6 days by Southern blot analysis; format: functional, cell-based; settings: time 6.0 day
[55] = test system: HepG2; test: Effect on viral dslDNA level in human HepG2 cells expressing NTCP infected with HBV at 1 uM incubated for 6 days by Southern blot analysis; format: functional, cell-based; settings: time 6.0 day
[56] = test system: HepG2; test: Effect on viral ssDNA level in human HepG2 cells expressing NTCP cells infected with HBV at 1 uM incubated for 6 days by Southern blot analysis; format: functional, cell-based; settings: time 6.0 day
[57] = test system: Hepatitis B virus; test: Antiviral activity against HBV infected in human HepG2 cells expressing NTCP assessed as fold increase in intracellular capsid level at 1 uM incubated for 6 days by Western blot analysis relative to control; format: functional; settings: time 6 day
[58] = test system: Hepatitis B virus; test: Antiviral activity against HBV infected in human HepG2 cells expressing NTCP assessed as decrease in intracellular HBc level at 1 uM incubated for 6 days by indirect immunofluorescence staining based analysis; format: functional, organism-based; settings: time 6.0 day
[59] = test system: Hepatitis B virus; test: Antiviral activity against HBV infected in human HepG2 cells expressing NTCP assessed as intracellular HBc level at 1 uM incubated for 6 days by Western blot analysis (reference value: 100 %); format: functional; settings: time 6 day
[60] = test system: Hepatitis B virus; test: Antiviral activity against HBV infected in human HepG2 cells expressing NTCP assessed as ratio of capsid associated HBV DNA level at 1 uM incubated for 6 days by Western blot analysis (reference value: 100 %); format: functional; settings: time 6 day

Chain of Cytochrome P450 2C9 (P11712 whole entry): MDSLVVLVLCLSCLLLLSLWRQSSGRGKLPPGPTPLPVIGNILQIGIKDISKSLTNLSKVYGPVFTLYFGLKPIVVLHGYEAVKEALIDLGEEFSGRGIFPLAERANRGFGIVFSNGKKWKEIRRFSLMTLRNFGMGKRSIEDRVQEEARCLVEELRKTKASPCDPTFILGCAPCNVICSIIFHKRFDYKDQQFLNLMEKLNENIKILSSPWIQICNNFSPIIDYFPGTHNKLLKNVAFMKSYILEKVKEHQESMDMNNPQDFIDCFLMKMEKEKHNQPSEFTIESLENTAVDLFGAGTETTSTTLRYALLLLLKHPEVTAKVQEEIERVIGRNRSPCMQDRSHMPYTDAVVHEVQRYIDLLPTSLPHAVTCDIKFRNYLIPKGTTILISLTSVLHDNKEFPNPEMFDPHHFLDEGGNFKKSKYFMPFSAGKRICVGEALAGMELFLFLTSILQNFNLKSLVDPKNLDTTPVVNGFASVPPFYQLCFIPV
Chain of Cytochrome P450 2D6 (P10635 whole entry): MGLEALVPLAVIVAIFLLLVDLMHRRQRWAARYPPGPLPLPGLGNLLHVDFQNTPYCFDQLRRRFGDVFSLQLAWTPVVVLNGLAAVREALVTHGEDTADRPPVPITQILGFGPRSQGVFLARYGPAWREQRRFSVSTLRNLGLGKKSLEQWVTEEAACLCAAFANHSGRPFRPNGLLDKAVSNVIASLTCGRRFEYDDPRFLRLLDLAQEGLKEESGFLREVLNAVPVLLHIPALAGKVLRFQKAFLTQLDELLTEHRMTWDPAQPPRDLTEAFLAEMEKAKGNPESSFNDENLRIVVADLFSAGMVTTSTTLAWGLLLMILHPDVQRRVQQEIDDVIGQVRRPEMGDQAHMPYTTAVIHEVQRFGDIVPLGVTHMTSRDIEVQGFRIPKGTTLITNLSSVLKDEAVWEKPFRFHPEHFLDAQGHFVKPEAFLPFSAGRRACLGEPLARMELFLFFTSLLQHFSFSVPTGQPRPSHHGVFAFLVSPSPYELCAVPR
Chain of Cytochrome P450 3A4 (P08684 whole entry): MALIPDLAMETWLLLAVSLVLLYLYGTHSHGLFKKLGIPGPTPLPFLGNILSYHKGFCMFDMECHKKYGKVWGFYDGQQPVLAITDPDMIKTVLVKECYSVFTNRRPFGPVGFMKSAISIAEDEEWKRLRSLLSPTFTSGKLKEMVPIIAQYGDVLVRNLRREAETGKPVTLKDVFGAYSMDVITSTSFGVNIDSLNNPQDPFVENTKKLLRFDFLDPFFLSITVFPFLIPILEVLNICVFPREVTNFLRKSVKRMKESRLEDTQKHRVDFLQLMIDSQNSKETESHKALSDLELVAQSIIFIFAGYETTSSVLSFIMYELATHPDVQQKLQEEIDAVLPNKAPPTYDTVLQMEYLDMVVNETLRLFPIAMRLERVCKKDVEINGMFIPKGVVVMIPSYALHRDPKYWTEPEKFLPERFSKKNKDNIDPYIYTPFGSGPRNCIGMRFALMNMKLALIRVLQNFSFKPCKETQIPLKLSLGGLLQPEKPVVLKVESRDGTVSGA
Chain of Voltage-gated inwardly rectifying potassium channel KCNH2 (Q12809 whole entry): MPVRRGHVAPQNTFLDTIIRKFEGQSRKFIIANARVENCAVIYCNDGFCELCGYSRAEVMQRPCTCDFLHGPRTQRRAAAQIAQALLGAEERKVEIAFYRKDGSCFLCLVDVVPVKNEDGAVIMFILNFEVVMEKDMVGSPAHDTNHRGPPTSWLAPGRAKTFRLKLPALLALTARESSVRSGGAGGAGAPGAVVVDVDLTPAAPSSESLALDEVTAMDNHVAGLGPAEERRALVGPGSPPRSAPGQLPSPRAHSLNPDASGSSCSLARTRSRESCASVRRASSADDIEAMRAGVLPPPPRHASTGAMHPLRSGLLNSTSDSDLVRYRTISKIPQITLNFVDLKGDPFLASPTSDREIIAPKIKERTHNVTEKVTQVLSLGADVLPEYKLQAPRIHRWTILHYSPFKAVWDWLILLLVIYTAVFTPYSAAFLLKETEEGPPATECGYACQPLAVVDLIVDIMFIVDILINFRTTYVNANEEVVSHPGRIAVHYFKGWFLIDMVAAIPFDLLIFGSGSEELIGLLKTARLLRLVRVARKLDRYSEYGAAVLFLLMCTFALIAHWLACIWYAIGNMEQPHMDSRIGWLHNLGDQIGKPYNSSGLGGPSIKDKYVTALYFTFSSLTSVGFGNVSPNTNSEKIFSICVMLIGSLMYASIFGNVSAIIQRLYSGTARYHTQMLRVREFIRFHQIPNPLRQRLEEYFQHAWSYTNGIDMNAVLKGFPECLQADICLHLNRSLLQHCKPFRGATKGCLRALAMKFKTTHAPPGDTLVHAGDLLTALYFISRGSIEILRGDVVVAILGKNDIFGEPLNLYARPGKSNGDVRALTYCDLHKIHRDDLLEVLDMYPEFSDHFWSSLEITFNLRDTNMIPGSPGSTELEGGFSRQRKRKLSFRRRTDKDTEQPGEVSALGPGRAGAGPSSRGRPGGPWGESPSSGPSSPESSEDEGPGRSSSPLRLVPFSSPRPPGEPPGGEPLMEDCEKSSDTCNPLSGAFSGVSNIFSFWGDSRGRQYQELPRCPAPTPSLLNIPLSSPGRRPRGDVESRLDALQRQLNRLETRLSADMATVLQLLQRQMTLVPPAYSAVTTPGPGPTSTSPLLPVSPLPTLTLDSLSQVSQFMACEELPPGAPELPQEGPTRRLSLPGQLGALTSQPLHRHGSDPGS
Chain of Cytochrome P450 2C19 (P33261 whole entry): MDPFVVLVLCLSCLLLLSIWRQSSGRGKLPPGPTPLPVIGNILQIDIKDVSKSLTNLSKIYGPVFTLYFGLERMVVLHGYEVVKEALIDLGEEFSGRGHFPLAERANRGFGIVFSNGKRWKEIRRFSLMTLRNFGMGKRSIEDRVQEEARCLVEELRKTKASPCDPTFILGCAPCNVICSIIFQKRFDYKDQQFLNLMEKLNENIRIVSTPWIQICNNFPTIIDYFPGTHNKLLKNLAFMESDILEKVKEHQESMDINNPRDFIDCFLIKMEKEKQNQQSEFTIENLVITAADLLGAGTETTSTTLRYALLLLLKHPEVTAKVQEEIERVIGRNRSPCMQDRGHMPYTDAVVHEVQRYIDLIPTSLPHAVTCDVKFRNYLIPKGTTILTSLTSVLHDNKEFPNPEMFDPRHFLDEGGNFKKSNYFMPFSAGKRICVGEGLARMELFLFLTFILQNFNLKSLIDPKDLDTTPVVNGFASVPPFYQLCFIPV

## Nc1cc(F)c(S(=O)(=O)N[C@H]2CNC2=O)cc1C(=O)Nc1ccc(F)c(C(F)F)c1
[1]
  EC50: 0.12 µM
[2]
  CC50: 173 µM
[3]
  selectivity ratio: 1420
[4]
  remaining at 0.5 h: 49%
[5]
  remaining at 0.5 h: 51%
[6]
  remaining at 0.5 h: 66.9%
[7]
  remaining at 4 h: 43.2%
[8]
  remaining at 4 h: 85.4%
[9]
  fraction unbound: 0.0555
[10]
  fraction unbound: 0.115
[11]
  IC50: > 100 µM
[12]
  IC50: > 100 µM
[13]
  IC50: > 100 µM
[14]
  IC50: > 100 µM
[15]
  IC50: > 100 µM
[16]
  IC50: > 100 µM
[17]
  IC50: 31.1 µM
[18]
  IC50: 44.5 µM
[19]
  IC50: 29.9 µM
[20]
  IC50: 26.1 µM
[21]
  IC50: > 10 µM
[22]
  EC50: 0.11 µM
[23]
  EC50: 0.55 µM
[24]
  CC50: > 100 µM
[25]
  CC50: > 100 µM
[26]
  selectivity ratio: > 909
[27]
  selectivity ratio: > 182
[28]
  half-life: 2.37 h
[29]
  AUC(0-t): 2390 ng·h/mL
[30]
  AUC(0-inf): 2400 ng·h/mL
[31]
  clearance: 35.2 mL/min/kg
[32]
  Vd: 2.95 L/kg
[33]
  half-life: 5.15 h
[34]
  AUC(0-t): 6880 ng·h/mL
[35]
  AUC(0-inf): 6950 ng·h/mL
[36]
  clearance: 50.5 mL/min/kg
[37]
  Vd: 4.16 L/kg
[38]
  Tmax: 0.5 h
[39]
  Cmax: 280 ng/mL
[40]
  half-life: 2.8 h
[41]
  AUC(0-t): 620 ng·h/mL
[42]
  AUC(0-inf): 620 ng·h/mL
[43]
  bioavailability: 26%
[44]
  Tmax: 0.33 h
[45]
  Cmax: 900 ng/mL
[46]
  half-life: 5.52 h
[47]
  AUC(0-t): 1510 ng·h/mL
[48]
  AUC(0-inf): 1600 ng·h/mL
[49]
  bioavailability: 21.9%
[50]
  Activity: 13%
[51]
  fold change (FC): 8
[52]
  Activity: 183%
[53]
  Activity: 19%
[54]
  Activity: No effect
[55]
  Activity: No effect
[56]
  Activity: No effect
[57]
  fold change (FC): ~2
[58]
  Activity: Active; Compound Modestly Decreased Hbc Level
[59]
  Activity: 129%
[60]
  Ratio: 10%
